Assay results as given in the NIST ThermoML archive (doi:10.1016/j.jct.2015.08.014).
± gives the expanded uncertainty stated by the source.

Experiment: xn = mol fraction of the nth substance listed
Conditions: 293.15 K, 100 kPa, Liquid, Alternating current cell with electrodes

Structure (SMILES): CCCC[N+]1(C)CCCC1.N#CN=C=[N-] [1-butyl-1-methylpyrrolidinium dicyanamide] + O=C1CCCO1
- electrical conductivity (Frequency=0.0015 MHz, x1 = 0.3029): 2.29 ± 0.023 S/m
- electrical conductivity (Frequency=0.0015 MHz, x1 = 0.3845): 2.112 ± 0.021 S/m
- electrical conductivity (Frequency=0.0015 MHz, x1 = 0.4985): 1.84 ± 0.019 S/m
- electrical conductivity (Frequency=0.0015 MHz, x1 = 0.6954): 1.46 ± 0.015 S/m
- electrical conductivity (Frequency=0.0015 MHz, x1 = 0.9013): 1.19 ± 0.012 S/m
- electrical conductivity (Frequency=0.0015 MHz, x1 = 1): 1.123 ± 0.011 S/m
- electrical conductivity (Frequency=0.002 MHz, x1 = 0.0463): 1.37 ± 0.024 S/m
- electrical conductivity (Frequency=0.002 MHz, x1 = 0.0987): 2.04 ± 0.025 S/m
- electrical conductivity (Frequency=0.002 MHz, x1 = 0.1449): 2.31 ± 0.024 S/m
- electrical conductivity (Frequency=0.002 MHz, x1 = 0.1859): 2.443 ± 0.024 S/m
- electrical conductivity (Frequency=0.002 MHz, x1 = 0.2493): 2.37 ± 0.024 S/m
- electrical conductivity (Frequency=0.002 MHz, x1 = 0.3029): 2.29 ± 0.023 S/m
- electrical conductivity (Frequency=0.002 MHz, x1 = 0.3845): 2.113 ± 0.021 S/m
- electrical conductivity (Frequency=0.002 MHz, x1 = 0.4985): 1.84 ± 0.019 S/m
- electrical conductivity (Frequency=0.002 MHz, x1 = 0.6954): 1.46 ± 0.015 S/m
- electrical conductivity (Frequency=0.002 MHz, x1 = 0.9013): 1.19 ± 0.012 S/m
- electrical conductivity (Frequency=0.002 MHz, x1 = 1): 1.123 ± 0.011 S/m
- electrical conductivity (Frequency=0.0025 MHz, x1 = 0.0463): 1.37 ± 0.024 S/m
- electrical conductivity (Frequency=0.0025 MHz, x1 = 0.0987): 2.04 ± 0.025 S/m
- electrical conductivity (Frequency=0.0025 MHz, x1 = 0.1449): 2.31 ± 0.024 S/m
- electrical conductivity (Frequency=0.0025 MHz, x1 = 0.1859): 2.445 ± 0.024 S/m
- electrical conductivity (Frequency=0.0025 MHz, x1 = 0.2493): 2.37 ± 0.024 S/m
- electrical conductivity (Frequency=0.0025 MHz, x1 = 0.3029): 2.29 ± 0.023 S/m
- electrical conductivity (Frequency=0.0025 MHz, x1 = 0.3845): 2.114 ± 0.021 S/m
- electrical conductivity (Frequency=0.0025 MHz, x1 = 0.4985): 1.84 ± 0.019 S/m
- electrical conductivity (Frequency=0.0025 MHz, x1 = 0.6954): 1.46 ± 0.015 S/m
- electrical conductivity (Frequency=0.0025 MHz, x1 = 0.9013): 1.19 ± 0.012 S/m
- electrical conductivity (Frequency=0.0025 MHz, x1 = 1): 1.123 ± 0.011 S/m
- electrical conductivity (Frequency=0.003 MHz, x1 = 0.0463): 1.37 ± 0.024 S/m
- electrical conductivity (Frequency=0.003 MHz, x1 = 0.0987): 2.05 ± 0.025 S/m
- electrical conductivity (Frequency=0.003 MHz, x1 = 0.1449): 2.31 ± 0.024 S/m
- electrical conductivity (Frequency=0.003 MHz, x1 = 0.1859): 2.45 ± 0.025 S/m
- electrical conductivity (Frequency=0.003 MHz, x1 = 0.2493): 2.37 ± 0.024 S/m
- electrical conductivity (Frequency=0.003 MHz, x1 = 0.3029): 2.29 ± 0.023 S/m
- electrical conductivity (Frequency=0.003 MHz, x1 = 0.3845): 2.114 ± 0.021 S/m
- electrical conductivity (Frequency=0.003 MHz, x1 = 0.4985): 1.84 ± 0.019 S/m
- electrical conductivity (Frequency=0.003 MHz, x1 = 0.6954): 1.46 ± 0.015 S/m
- electrical conductivity (Frequency=0.003 MHz, x1 = 0.9013): 1.19 ± 0.012 S/m
- electrical conductivity (Frequency=0.003 MHz, x1 = 1): 1.123 ± 0.011 S/m
- electrical conductivity (Frequency=0.00347222 MHz, x1 = 0.0463): 1.37 ± 0.024 S/m
- electrical conductivity (Frequency=0.00347222 MHz, x1 = 0.0987): 2.05 ± 0.025 S/m
- electrical conductivity (Frequency=0.00347222 MHz, x1 = 0.1449): 2.31 ± 0.024 S/m
- electrical conductivity (Frequency=0.00347222 MHz, x1 = 0.1859): 2.45 ± 0.025 S/m
- electrical conductivity (Frequency=0.00347222 MHz, x1 = 0.2493): 2.37 ± 0.024 S/m
- electrical conductivity (Frequency=0.00347222 MHz, x1 = 0.3029): 2.29 ± 0.023 S/m
- electrical conductivity (Frequency=0.00347222 MHz, x1 = 0.3845): 2.115 ± 0.021 S/m
- electrical conductivity (Frequency=0.00347222 MHz, x1 = 0.4985): 1.84 ± 0.019 S/m
- electrical conductivity (Frequency=0.00347222 MHz, x1 = 0.6954): 1.46 ± 0.015 S/m
- electrical conductivity (Frequency=0.00347222 MHz, x1 = 0.9013): 1.19 ± 0.012 S/m
- electrical conductivity (Frequency=0.00347222 MHz, x1 = 1): 1.123 ± 0.011 S/m
- electrical conductivity (Frequency=0.004 MHz, x1 = 0.0463): 1.37 ± 0.024 S/m
- electrical conductivity (Frequency=0.004 MHz, x1 = 0.0987): 2.05 ± 0.025 S/m
- electrical conductivity (Frequency=0.004 MHz, x1 = 0.1449): 2.31 ± 0.024 S/m
- electrical conductivity (Frequency=0.004 MHz, x1 = 0.1859): 2.45 ± 0.025 S/m
- electrical conductivity (Frequency=0.004 MHz, x1 = 0.2493): 2.37 ± 0.024 S/m
- electrical conductivity (Frequency=0.004 MHz, x1 = 0.3029): 2.29 ± 0.023 S/m
- electrical conductivity (Frequency=0.004 MHz, x1 = 0.3845): 2.115 ± 0.021 S/m
- electrical conductivity (Frequency=0.004 MHz, x1 = 0.4985): 1.84 ± 0.019 S/m
- electrical conductivity (Frequency=0.004 MHz, x1 = 0.6954): 1.46 ± 0.015 S/m
- electrical conductivity (Frequency=0.004 MHz, x1 = 0.9013): 1.19 ± 0.012 S/m
- electrical conductivity (Frequency=0.004 MHz, x1 = 1): 1.123 ± 0.011 S/m
- electrical conductivity (Frequency=0.00446429 MHz, x1 = 0.0463): 1.37 ± 0.024 S/m
- electrical conductivity (Frequency=0.00446429 MHz, x1 = 0.0987): 2.05 ± 0.025 S/m
- electrical conductivity (Frequency=0.00446429 MHz, x1 = 0.1449): 2.31 ± 0.024 S/m
- electrical conductivity (Frequency=0.00446429 MHz, x1 = 0.1859): 2.45 ± 0.025 S/m
- electrical conductivity (Frequency=0.00446429 MHz, x1 = 0.2493): 2.37 ± 0.024 S/m
- electrical conductivity (Frequency=0.00446429 MHz, x1 = 0.3029): 2.29 ± 0.023 S/m
- electrical conductivity (Frequency=0.00446429 MHz, x1 = 0.3845): 2.115 ± 0.021 S/m
- electrical conductivity (Frequency=0.00446429 MHz, x1 = 0.4985): 1.84 ± 0.019 S/m
- electrical conductivity (Frequency=0.00446429 MHz, x1 = 0.6954): 1.46 ± 0.015 S/m
- electrical conductivity (Frequency=0.00446429 MHz, x1 = 0.9013): 1.19 ± 0.012 S/m
- electrical conductivity (Frequency=0.00446429 MHz, x1 = 1): 1.123 ± 0.011 S/m
- electrical conductivity (Frequency=0.005 MHz, x1 = 0.0463): 1.37 ± 0.024 S/m
- electrical conductivity (Frequency=0.005 MHz, x1 = 0.0987): 2.05 ± 0.025 S/m
- electrical conductivity (Frequency=0.005 MHz, x1 = 0.1449): 2.31 ± 0.024 S/m
- electrical conductivity (Frequency=0.005 MHz, x1 = 0.1859): 2.45 ± 0.025 S/m
- electrical conductivity (Frequency=0.005 MHz, x1 = 0.2493): 2.37 ± 0.024 S/m
- electrical conductivity (Frequency=0.005 MHz, x1 = 0.3029): 2.29 ± 0.023 S/m
- electrical conductivity (Frequency=0.005 MHz, x1 = 0.3845): 2.115 ± 0.021 S/m
- electrical conductivity (Frequency=0.005 MHz, x1 = 0.4985): 1.84 ± 0.019 S/m
- electrical conductivity (Frequency=0.005 MHz, x1 = 0.6954): 1.46 ± 0.015 S/m
- electrical conductivity (Frequency=0.005 MHz, x1 = 0.9013): 1.19 ± 0.012 S/m
- electrical conductivity (Frequency=0.005 MHz, x1 = 1): 1.123 ± 0.011 S/m
- electrical conductivity (Frequency=0.005454 MHz, x1 = 0.0463): 1.37 ± 0.024 S/m
- electrical conductivity (Frequency=0.005454 MHz, x1 = 0.0987): 2.05 ± 0.025 S/m
- electrical conductivity (Frequency=0.005454 MHz, x1 = 0.1449): 2.31 ± 0.024 S/m
- electrical conductivity (Frequency=0.005454 MHz, x1 = 0.1859): 2.45 ± 0.025 S/m
- electrical conductivity (Frequency=0.005454 MHz, x1 = 0.2493): 2.37 ± 0.024 S/m
- electrical conductivity (Frequency=0.005454 MHz, x1 = 0.3029): 2.29 ± 0.023 S/m
- electrical conductivity (Frequency=0.005454 MHz, x1 = 0.3845): 2.116 ± 0.021 S/m
- electrical conductivity (Frequency=0.005454 MHz, x1 = 0.4985): 1.84 ± 0.019 S/m
- electrical conductivity (Frequency=0.005454 MHz, x1 = 0.6954): 1.46 ± 0.015 S/m
- electrical conductivity (Frequency=0.005454 MHz, x1 = 0.9013): 1.19 ± 0.012 S/m
- electrical conductivity (Frequency=0.005454 MHz, x1 = 1): 1.123 ± 0.011 S/m
- electrical conductivity (Frequency=0.006 MHz, x1 = 0.0463): 1.37 ± 0.024 S/m
- electrical conductivity (Frequency=0.006 MHz, x1 = 0.0987): 2.05 ± 0.025 S/m
- electrical conductivity (Frequency=0.006 MHz, x1 = 0.1449): 2.31 ± 0.024 S/m
- electrical conductivity (Frequency=0.006 MHz, x1 = 0.1859): 2.45 ± 0.025 S/m
- electrical conductivity (Frequency=0.006 MHz, x1 = 0.2493): 2.37 ± 0.024 S/m
- electrical conductivity (Frequency=0.006 MHz, x1 = 0.3029): 2.29 ± 0.023 S/m
- electrical conductivity (Frequency=0.006 MHz, x1 = 0.3845): 2.116 ± 0.021 S/m
- electrical conductivity (Frequency=0.006 MHz, x1 = 0.4985): 1.84 ± 0.019 S/m
- electrical conductivity (Frequency=0.006 MHz, x1 = 0.6954): 1.46 ± 0.015 S/m
- electrical conductivity (Frequency=0.006 MHz, x1 = 0.9013): 1.19 ± 0.012 S/m
- electrical conductivity (Frequency=0.006 MHz, x1 = 1): 1.123 ± 0.011 S/m
- electrical conductivity (Frequency=0.00652174 MHz, x1 = 0.0463): 1.37 ± 0.024 S/m
- electrical conductivity (Frequency=0.00652174 MHz, x1 = 0.0987): 2.05 ± 0.025 S/m
